Tests used:
Type in all cases: in vivo
soya beans (Glycine max) = test: Glycine max - growth promotion in combination with Mycorrhiza; conditions: 44 days greenhouse, fresh roots
Experimental: Glycine max—Growth Promotion in Combination with Mycorrhiza
Seed of soya beans (Glycine max) is mixed with the desired amount of active ingredient in water. After drying, the seeds are sown in pots filled with sand and perlite (1:1). For inoculation with arbuscular mycorrhiza fungi, the sand-perlite mixture is mixed beforehand with the Mycorrhiza inoculum (AMykor GmbH; Germany) in a concentration of 25 ml/L. The seed is covered with 3 cm of Lecaton (expanded clay).
Over the following 44 days, the plants are cultivated in a greenhouse in good growth conditions. The pots are watered with a nutrient solution (Hoagland and Amon, 1950, half-concentrated solution) with a low phosphate concentration (20 μM).
The untreated control plants are cultured without arbuscular mycorrhiza fungi, but under the same conditions.
The growth-promoting effect on shoot and roots is ascertained via the weight of the fresh roots of the treated plant in comparison to the untreated control.

[1] = tested on: cotton (Gossypium hirsutum); test: Seed treatment - cotton emergence test; conditions: after 2 days
Source text: Seed Treatment—Cotton Emergence Test
Seed of cotton (Gossypium hirsutum) is mixed with the desired amount of active ingredient and spores and also water. After drying, 25 seed grains in each case are sown in pots filled with sandy loam.
After 2 days, the effect in % is ascertained on the basis of the cotton plants that have emerged.

[2] = tested on: green peach aphid (Myzus persicae); test: Myzus test (spray treatment), Chinese cabbage leaf disks; conditions: for Mortality in % after 1d: spray
Source text: (§1) If the actual insecticide mortality is greater than calculated, then the combination is superadditive in its kill—that is, there is a synergistic effect. In this case the mortality actually observed must be greater than the value for the expected mortality (E) calculated on the basis of the formula given above.
Myzus Test (Spray Treatment)
Solvent: 78 parts by weight of acetone
• 1.5 parts by weight of dimethylformamide Emulsifier: 0.5 part by weight of alkylaryl polyglycol ether
A suitable preparation of active ingredient is prepared by mixing one part by weight of active ingredient with the stated amounts of solvent and emulsifier and diluting the concentrate with emulsifier-containing water to the desired concentration. A suitable suspension of biological agent is prepared by dissolving the cells, spores or viruses in emulsifier-containing water in the desired concentration.
Chinese cabbage (Brassica pekinensis) leaf disks infested by all stages of the green peach aphid (Myzus persicae) are sprayed with an active ingredient and/or biological agent preparation in the desired concentration.
After the desired time, the effect in % is ascertained. Here, 100% means that all of the aphids have been killed; 0% means that no aphids have been killed. The mortality figures determined are used for calculation according to the Colby formula (see sheet 1).

[3] = tested on: army worm (Spodoptera frugiperda); test: Spodoptera frugiperda test (spray treatment), maize leaf disks; conditions: foliar, 48 h, read-out: Mortality in % after 2d
Source text: (§2) The anticipated effect of a given combination of two active ingredients may be calculated (cf. Colby, S. R., “Calculating Synergistic and Antagonistic Responses of Herbicide Combinations”, Weeds 15, pages 20-22, 1967) as follows: • if • X is the mortality, expressed in % of the untreated control, when active ingredient A is used in an application rate of m ppm, or m g/ha • Y is the mortality, expressed in % of the untreated control, when active ingredient B is used in an application rate of n ppm, or n g/ha • E is the mortality, expressed in % of the untreated control, when active ingredients A and B are used at application rates of m and n ppm or of m and n g/ha, • then
as §1
Spodoptera frugiperda Test (Spray Treatment)
Solvent: 78.0 parts by weight of acetone
• 1.5 parts by weight of dimethylformamide Emulsifier: 0.5 part by weight of alkylaryl polyglycol ether […]
After the desired time, the effect in % is ascertained. […] The mortality figures determined are used for calculation according to the Colby formula (see sheet 1).

Meloidogyne incognita = Meloidogyne incognita test (gall formation on lettuce roots)
Source text: as §2, §1
Meloidogyne incognita Test
Solvent: 125.0 parts by weight of acetone
A suitable preparation of active ingredient is prepared by mixing one part by weight of active ingredient with the stated amounts of solvent and diluting the concentrate with water to the desired concentration. […]
After the desired time, the nematicidal effect is determined on the basis of gall formation in %. […]

[4] = Myzus persicae, foliar, 24 h, read-out: Mortality in % after 1d
[5] = 1000 g ai/ha, 100% = all aphids killed

For arbuscular mycorrhiza fungus, the “Root weight in % in comparison to untreated control” value (soya beans (Glycine max); Mycorrhiza inoculum 25 ml/L in sand-perlite) was 133.21%.

“Bacillus subtilis strain GB03 [Bacillus subtilis strain GB 03]” was tested, and the “Emergence in % in comparison to untreated control” value (shortened to “Emergence in % in comparison”) ([1]; 0.078 g ai/kg seed) was 158%.

With “Bacillus amyloliquefaciens strain FZB 42” the “Mortality in % after 1d” value ([2]; 2000 g ai/ha) was 0%, the “Emergence in % in comparison” value ([1]; 0.075 g ai/kg seed) was 158% and the “Emergence in % in comparison” value ([1]; 0.15 g ai/kg seed) was 163%.

Compound O=C(NCCc1ncc(C(F)(F)F)cc1Cl)c1ccccc1C(F)(F)F [Fluopyram, N-{2-[3-chloro-5-(trifluoromethyl)-2-pyridinyl]ethyl}-2-trifluoromethylbenzamide, reference compound] has a mortality at 1000 g/ha [3] of 0%, a mortality at 500 g/ha [2, 4] of 0% and a mortality at 1000 g/ha [2, 4] of 0%. The mortality at 0.0005 ppm (Meloidogyne incognita; Meloidogyne incognita, 504 h, read-out: Mortality in % after 21d) was 0%, the “Root weight in % in comparison to untreated control” value (soya beans (Glycine max); 0.1 mg/seed grain, seed treatment) was 116.90% and the “Emergence in % in comparison” value ([1]; 0.5 g ai/kg seed) was 100%. The “Emergence in % in comparison” value ([1]; 1 g ai/kg seed, untreated = 100) was 133%.

O=S(=O)(CCC(F)=C(F)F)c1ncc(Cl)s1 [Fluensulfone, fluensulfone, reference compound] was tested, and the “Mortality in % after 1d” value ([2]; 2000 g ai/ha) was 0%.

Cydia pomonella granulosis virus (CpGV) was tested, and the “Mortality in % after 1d” value [2, 5] was 0%.

For Metschnikowia fructicola, the “Mortality in % after 1d” value [2, 5] was 0%.

In the case of Paecilomyces lilacinus strain 251, the “Mortality in % after 1d” value ([2]; 5000 g ai/ha) is reported as 0%.

In the case of “Bacillus thuringiensis subsp. tenebrionis”, the “Mortality in % after 1d” value [2, 5] is reported as 0%.

With C/C=C(\C)C(=O)O[C@H]1C[C@@H](OC(C)=O)[C@@]2(C(=O)OC)CO[C@H]3[C@@H](O)[C@@](C)([C@]45O[C@@]4(C)[C@H]4C[C@@H]5O[C@@H]5OC=C[C@@]54O)[C@H]4[C@]1(CO[C@]4(O)C(=O)OC)[C@@H]32 [Azadirachtin, azadirachtin, reference compound] the mortality at 100 g/ha [2, 4] was 0%.

Metarhizium anisopliae strain F52 was tested, and the “Mortality in % after 21d” value (Meloidogyne incognita; 5 ppm, nematicidal effect from gall formation) was 0%.

Source: patent publication US9872494B2, “Active ingredient combinations comprising pyridylethylbenzamides and other active ingredients” (priority 2010, dated 2018)
